Assay results reported in patent publication US10160755B2 (Plexxikon Inc., priority 2015, dated 2018).

Legend:
c-Kit = c-Kit (Homo sapiens, UniProt P10721); experiment: c-Kit biochemical assay (per US 2007/0032519)
In short: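 Biochemical kinase inhibition run per US 2007/0032519; values reported as binned IC50 ranges (0.0001–1 μM, 1–10 μM, 10–200 μM).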

FLT3-D835Y = biological target: T1, FLT3-D835Y (Homo sapiens, UniProt P36888, D835Y); experiment: FLT3-D835Y biochemical kinase assay (AlphaScreen)
T1 construct: purchased Invitrogen PV3967
T1 sequence (P36888 27-993 D835Y): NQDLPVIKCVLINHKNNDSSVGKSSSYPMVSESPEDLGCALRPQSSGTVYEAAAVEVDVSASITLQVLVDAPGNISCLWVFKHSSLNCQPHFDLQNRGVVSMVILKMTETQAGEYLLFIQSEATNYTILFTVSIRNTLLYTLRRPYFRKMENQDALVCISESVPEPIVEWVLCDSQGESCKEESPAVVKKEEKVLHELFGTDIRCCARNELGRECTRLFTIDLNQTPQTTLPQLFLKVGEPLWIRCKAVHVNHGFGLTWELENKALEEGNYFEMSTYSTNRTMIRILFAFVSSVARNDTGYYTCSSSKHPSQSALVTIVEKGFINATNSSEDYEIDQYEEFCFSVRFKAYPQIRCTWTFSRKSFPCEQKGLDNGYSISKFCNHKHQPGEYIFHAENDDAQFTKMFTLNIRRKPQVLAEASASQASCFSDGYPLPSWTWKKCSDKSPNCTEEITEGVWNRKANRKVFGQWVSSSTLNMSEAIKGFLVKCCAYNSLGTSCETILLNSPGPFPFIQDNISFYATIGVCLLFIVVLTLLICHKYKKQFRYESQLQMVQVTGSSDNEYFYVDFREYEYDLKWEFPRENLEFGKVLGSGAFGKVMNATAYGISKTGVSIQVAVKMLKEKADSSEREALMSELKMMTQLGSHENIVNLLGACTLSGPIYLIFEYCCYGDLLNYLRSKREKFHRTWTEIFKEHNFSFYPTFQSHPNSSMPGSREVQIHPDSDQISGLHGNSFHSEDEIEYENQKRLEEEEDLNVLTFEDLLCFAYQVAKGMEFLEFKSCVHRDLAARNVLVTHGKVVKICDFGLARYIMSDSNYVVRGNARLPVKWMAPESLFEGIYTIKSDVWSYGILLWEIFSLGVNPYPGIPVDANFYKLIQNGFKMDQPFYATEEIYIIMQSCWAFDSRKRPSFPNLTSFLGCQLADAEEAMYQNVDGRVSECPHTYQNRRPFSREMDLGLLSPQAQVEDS
In short: (§1)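 Recombinant enzyme phosphorylated biotin-poly(Glu4-Tyr) peptide (30 nM final); ATP final 10 μM for FLT3-D835Y, 100 μM for FLT3-ITD. AlphaScreen read-out: streptavidin donor and anti-phosphotyrosine (PY20) acceptor beads, 20 and 60 min at room temperature; inhibition seen as drop in 580 nm proximity signal; IC50 determined.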

FLT3-ITD = biological target: T2, FLT3-ITD (Homo sapiens, UniProt P36888); experiment: FLT3-ITD biochemical kinase assay (AlphaScreen)
T2 construct: FLT3-ITD; Invitrogen #PV6190
T2 sequence (P36888 1-993): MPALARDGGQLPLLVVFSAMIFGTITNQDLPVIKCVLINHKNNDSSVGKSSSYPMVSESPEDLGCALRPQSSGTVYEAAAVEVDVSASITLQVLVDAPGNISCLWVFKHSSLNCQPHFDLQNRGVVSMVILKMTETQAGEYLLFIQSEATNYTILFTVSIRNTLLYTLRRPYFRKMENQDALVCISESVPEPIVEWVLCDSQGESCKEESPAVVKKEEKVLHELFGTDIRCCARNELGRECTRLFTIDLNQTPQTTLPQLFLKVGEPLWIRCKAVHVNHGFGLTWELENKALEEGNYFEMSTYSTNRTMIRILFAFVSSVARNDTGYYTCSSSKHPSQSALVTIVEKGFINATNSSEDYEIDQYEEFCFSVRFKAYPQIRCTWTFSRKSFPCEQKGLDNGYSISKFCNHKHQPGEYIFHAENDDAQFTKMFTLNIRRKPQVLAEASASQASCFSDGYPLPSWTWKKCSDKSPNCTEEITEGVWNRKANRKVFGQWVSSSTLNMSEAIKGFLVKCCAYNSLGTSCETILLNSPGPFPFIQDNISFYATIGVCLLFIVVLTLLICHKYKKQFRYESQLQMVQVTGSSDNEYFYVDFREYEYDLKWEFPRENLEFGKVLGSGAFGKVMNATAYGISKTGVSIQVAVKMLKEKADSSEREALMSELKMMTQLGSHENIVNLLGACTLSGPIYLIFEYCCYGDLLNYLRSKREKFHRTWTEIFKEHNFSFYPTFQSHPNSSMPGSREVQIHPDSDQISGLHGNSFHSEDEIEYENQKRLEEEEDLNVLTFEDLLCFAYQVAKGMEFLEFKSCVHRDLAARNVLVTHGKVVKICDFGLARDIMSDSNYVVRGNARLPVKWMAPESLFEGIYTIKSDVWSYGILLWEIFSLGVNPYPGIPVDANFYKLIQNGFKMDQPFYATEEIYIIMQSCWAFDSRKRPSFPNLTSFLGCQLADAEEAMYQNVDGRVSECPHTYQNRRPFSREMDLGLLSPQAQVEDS
In short: as §1

c-Kit, sequence (P10721 26-976): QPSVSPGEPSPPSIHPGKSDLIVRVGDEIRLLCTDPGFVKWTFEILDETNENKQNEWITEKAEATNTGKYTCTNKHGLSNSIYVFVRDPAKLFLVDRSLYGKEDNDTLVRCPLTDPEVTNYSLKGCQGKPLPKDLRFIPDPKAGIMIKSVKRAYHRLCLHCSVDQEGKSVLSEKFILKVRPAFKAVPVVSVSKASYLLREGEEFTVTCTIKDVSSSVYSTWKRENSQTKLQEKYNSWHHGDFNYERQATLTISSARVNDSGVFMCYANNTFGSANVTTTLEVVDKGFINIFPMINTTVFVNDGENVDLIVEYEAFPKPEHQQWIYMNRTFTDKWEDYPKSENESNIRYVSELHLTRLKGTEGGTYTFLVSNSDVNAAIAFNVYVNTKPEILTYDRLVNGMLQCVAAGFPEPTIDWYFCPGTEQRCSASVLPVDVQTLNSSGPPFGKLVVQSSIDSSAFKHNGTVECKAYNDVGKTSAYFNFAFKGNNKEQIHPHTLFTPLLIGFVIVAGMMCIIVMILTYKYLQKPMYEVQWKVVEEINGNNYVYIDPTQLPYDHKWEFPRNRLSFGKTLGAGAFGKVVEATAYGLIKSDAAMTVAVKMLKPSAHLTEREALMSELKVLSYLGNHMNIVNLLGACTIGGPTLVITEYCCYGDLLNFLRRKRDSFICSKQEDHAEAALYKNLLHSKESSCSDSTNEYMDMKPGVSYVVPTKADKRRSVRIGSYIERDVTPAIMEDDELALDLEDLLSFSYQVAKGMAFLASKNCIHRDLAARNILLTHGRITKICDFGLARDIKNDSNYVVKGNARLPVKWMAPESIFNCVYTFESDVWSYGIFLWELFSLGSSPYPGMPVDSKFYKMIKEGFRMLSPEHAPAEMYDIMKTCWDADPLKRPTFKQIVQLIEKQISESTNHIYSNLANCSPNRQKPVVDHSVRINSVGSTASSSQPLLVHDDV

| IC50 (c-Kit) | IC50 (FLT3-D835Y) | IC50 (FLT3-ITD) | Compound |
| --- | --- | --- | --- |
| 10 to 200 µM | 10 to 200 µM | 0.0001 to 1 µM | COc1cnc2[nH]cc(-c3cnc4c(c3)ncn4C)c2c1 [P-055, 6-(5-methoxy-1H-pyrrolo[2,3-b]pyridin-3-yl)-3-methyl-imidazo[4,5-b]pyridine] |
| 1 to 10 µM | 0.0001 to 1 µM | 0.0001 to 1 µM | O=C(C1CC1)N1CC=C(c2cnc3[nH]cc(-c4ccc5ncn(CC(F)(F)F)c5c4)c3c2)C1 [P-133, cyclopropyl-[3-[3-[3-(2,2,2-trifluoroethyl)benzimidazol-5-yl]-1H-pyrrolo[2,3-b]pyridin-5-yl]-2,5-dihydropyrrol-1-yl]methanone] |
| 0.0001 to 1 µM | 0.0001 to 1 µM | 0.0001 to 1 µM | CS(=O)(=O)Nc1cccc(-c2cnc3[nH]cc(-c4ccc5ncn(C6CCCC6)c5c4)c3c2)c1 [P-066, N-[3-[3-(3-cyclopentylbenzimidazol-5-yl)-1H-pyrrolo[2,3-b]pyridin-5-yl]phenyl]methanesulfonamide] |
| 1 to 10 µM | 0.0001 to 1 µM | 0.0001 to 1 µM | Cn1cnc2ccc(-c3c[nH]c4ncccc34)cc21 [P-009, 1-methyl-6-(1H-pyrrolo[2,3-b]pyridin-3-yl)benzimidazole] |
| 1 to 10 µM | 0.0001 to 1 µM | 0.0001 to 1 µM | CS(=O)(=O)Nc1cccc(-c2cnc3[nH]cc(-c4ccc5ncsc5c4)c3c2)c1 [P-053, N-[3-[3-(1,3-benzothiazol-6-yl)-1H-pyrrolo[2,3-b]pyridin-5-yl]phenyl]methanesulfonamide] |
| 1 to 10 µM | 0.0001 to 1 µM | 0.0001 to 1 µM | CCS(=O)(=O)Nc1cccc(-c2cnc3[nH]cc(-c4ccc5ncn(C)c5c4)c3c2)c1 [P-094, N-[3-[3-(3-methylbenzimidazol-5-yl)-1H-pyrrolo[2,3-b]pyridin-5-yl]phenyl]ethanesulfonamide] |
| 1 to 10 µM | 0.0001 to 1 µM | 0.0001 to 1 µM | Cc1cnc2[nH]cc(-c3ccc4ncn(C)c4c3)c2c1 [P-018, 1-methyl-6-(5-methyl-1H-pyrrolo[2,3-b]pyridin-3-yl)benzimidazole] |
| 1 to 10 µM | 1 to 10 µM | 0.0001 to 1 µM | N#Cc1cnc2[nH]cc(-c3ccc4nc[nH]c4c3)c2c1 [P-023, 3-(3H-benzimidazol-5-yl)-1H-pyrrolo[2,3-b]pyridine-5-carbonitrile] |
| 1 to 10 µM | 0.0001 to 1 µM | 0.0001 to 1 µM | Cn1cnc2ccc(-c3c[nH]c4ncc(-c5ccc(NS(C)(=O)=O)cc5)nc34)cc21 [P-063, N-[4-[7-(3-methylbenzimidazol-5-yl)-5H-pyrrolo[2,3-b]pyrazin-2-yl]phenyl]methanesulfonamide] |
| 1 to 10 µM | 0.0001 to 1 µM | 0.0001 to 1 µM | O=C(C1CC1)N1CC=C(c2cnc3[nH]cc(-c4ccc5[nH]cnc5c4)c3c2)CC1 [P-017, [4-[3-(1H-benzimidazol-5-yl)-1H-pyrrolo[2,3-b]pyridin-5-yl]-3,6-dihydro-2H-pyridin-1-yl]-cyclopropyl-methanone] |
| 1 to 10 µM | 0.0001 to 1 µM | 0.0001 to 1 µM | COc1cnc2[nH]cc(-c3ccc4ncnc(OC)c4c3)c2c1 [P-043, 4-methoxy-6-(5-methoxy-1H-pyrrolo[2,3-b]pyridin-3-yl)quinazoline] |
| 1 to 10 µM | 0.0001 to 1 µM | 0.0001 to 1 µM | CC(C)(O)C#Cc1cnc2[nH]cc(-c3ccc4ncn(C(C)(C)C)c4c3)c2n1 [P-377, 4-[7-(3-tert-butylbenzimidazol-5-yl)-5H-pyrrolo[2,3-b]pyrazin-2-yl]-2-methyl-but-3-yn-2-ol] |
| 0.0001 to 1 µM | 0.0001 to 1 µM | 0.0001 to 1 µM | CC(C)(C)n1cnc2ccc(-c3c[nH]c4ncc(-c5ccc(C(=O)O)nc5)nc34)cc21 [P-376, 5-[7-(3-tert-butylbenzimidazol-5-yl)-5H-pyrrolo[2,3-b]pyrazin-2-yl]pyridine-2-carboxylic acid] |
| 1 to 10 µM | 0.0001 to 1 µM | 0.0001 to 1 µM | CS(=O)(=O)Nc1cccc(-c2cnc3[nH]cc(-c4ccc5[nH]cnc5c4)c3c2)c1 [P-013, N-[3-[3-(1H-benzimidazol-5-yl)-1H-pyrrolo[2,3-b]pyridin-5-yl]phenyl]methanesulfonamide] |
| 1 to 10 µM | 0.0001 to 1 µM | 0.0001 to 1 µM | Cn1cnc2ccc(-c3c[nH]c4ncc(-c5cccc(N6CCCS6(=O)=O)c5)cc34)cc21 [P-093, 2-[3-[3-(3-methylbenzimidazol-5-yl)-1H-pyrrolo[2,3-b]pyridin-5-yl]phenyl]-1,2-thiazolidine 1,1-dioxide] |
| 1 to 10 µM | 0.0001 to 1 µM | 0.0001 to 1 µM | CNS(=O)(=O)c1cccc(-c2cnc3[nH]cc(-c4ccc5ncn(C)c5c4)c3n2)c1 [P-057, N-methyl-3-[7-(3-methylbenzimidazol-5-yl)-5H-pyrrolo[2,3-b]pyrazin-2-yl]benzenesulfonamide] |
| 0.0001 to 1 µM | 0.0001 to 1 µM | 0.0001 to 1 µM | CN(C)c1ccc(-c2cnc3[nH]cc(-c4ccc5ncn(C(C)(C)C)c5c4)c3n2)cn1 [P-379, 5-[7-(3-tert-butylbenzimidazol-5-yl)-5H-pyrrolo[2,3-b]pyrazin-2-yl]-N,N-dimethyl-pyridin-2-amine] |
| 0.0001 to 1 µM | 0.0001 to 1 µM | 0.0001 to 1 µM | COc1ncc(-c2cnc3[nH]cc(-c4ccc5ncn(C(C)(C)C)c5c4)c3n2)cc1F [P-385, 7-(3-tert-butylbenzimidazol-5-yl)-2-(5-fluoro-6-methoxy-3-pyridyl)-5H-pyrrolo[2,3-b]pyrazine] |
| 10 to 200 µM | 0.0001 to 1 µM | 0.0001 to 1 µM | COC(=O)c1cc(-c2cnc3[nH]cc(-c4ccc5ncn(C)c5c4)c3c2)ccc1C [P-119] |
| 1 to 10 µM | 0.0001 to 1 µM | 0.0001 to 1 µM | COc1cnc2[nH]cc(-c3ccc4ncn(CC(F)(F)F)c4c3)c2c1 [P-047, 5-methoxy-3-[3-(2,2,2-trifluoroethyl)benzimidazol-5-yl]-1H-pyrrolo[2,3-b]pyridine] |
| 10 to 200 µM | 1 to 10 µM | 1 to 10 µM | CS(=O)(=O)Nc1cccc(-c2cnc3[nH]cc(-c4ccc5c(c4)OC(F)(F)O5)c3n2)c1 [P-064, N-[3-[7-(2,2-difluoro-1,3-benzodioxol-5-yl)-5H-pyrrolo[2,3-b]pyrazin-2-yl]phenyl]methanesulfonamide] |
| 10 to 200 µM | 0.0001 to 1 µM | 0.0001 to 1 µM | Cn1cnc2ccc(-c3c[nH]c4ncc(C5=CCN(C(=O)C6CC6)C5)cc34)cc21 [P-130, cyclopropyl-[3-[3-(3-methylbenzimidazol-5-yl)-1H-pyrrolo[2,3-b]pyridin-5-yl]-2,5-dihydropyrrol-1-yl]methanone] |
| 10 to 200 µM | 10 to 200 µM | 1 to 10 µM | COc1cnc2[nH]cc(-c3ccc4occc4c3)c2c1 [P-036, 3-(benzofuran-5-yl)-5-methoxy-1H-pyrrolo[2,3-b]pyridine] |
